Data on 30 molecules can be found in patent US7781591B2, “Substituted 3-cyanopyridines as protein kinase inhibitors” (Wyeth LLC, priority 2006, dated 2010).

What all share (format): biochemical
Test [1] has as its target T1, purified recombinant active kinase domain of full length PKC theta (amino acids 362-706) (Homo sapiens, UniProt Q04759).
T1 construct: active kinase domain of full length PKC theta (amino acids 362-706)
In words: Radioactive kinase assay for inhibition of the active kinase domain (KD) of PKCθ. To be noted: active kinase domain of PKC theta (amino acids 362-706), average value, read-out: IC50 PKCθKD. The protocol:
A Radioactive Kinase Assay for Inhibition of the Active Kinase Domain (KD) of PKCθ
(§1) This assay is based on the phosphorylation of a biotinylated substrate by a kinase utilizing radiolabeled ATP (ATP γ P33). The substrate was a biotinylated peptide with a sequence of biotin-[…]-C(O)NH2. The enzyme was purified recombinant active kinase domain of full length PKC theta (amino acids 362-706). The assay buffer was composed of 100 mM Hepes, pH7.5, 2 mM MgCl2, 20 mM β-glycerophosphate and 0.008% TritonX 100. A reaction mixture of ATP, ATP γ P33 (PerkinElmer), DTT, and the enzyme was prepared in the assay buffer and added to a 96-well polypropylene plate. The compound (diluted in DMSO in a separate 96-well polypropylene plate) was added to the reaction mixture and incubated at room temperature. Following the incubation, the peptide substrate was added to the reaction mixture to initiate the enzymatic reaction. The reaction was terminated with the addition of a stop solution (100 mM EDTA, 0.2% TritonX100, and 20 mM NaHPO4) and transferred from the assay plate to a washed streptavidin-coated 96-well scintiplate (PerkinElmer). The scintiplate was incubated at room temperature, washed in PBS with 0.1% TritonX 100, and counted in the 1450 Microbeta Trilux (Wallac, Version 2.60). Counts were recorded for each well as corrected counts per minute (CCPM). The counts were considered corrected because they were adjusted according to a P33 normalization protocol, which corrects for efficiency and background differences between the instrument detectors (software version 4.40.01).

The target of test [2] is T2, human PKCθ full length enzyme (Homo sapiens, UniProt Q04759).
T2 construct: human PKCθ full length enzyme (Panvera Cat# P2996); purchased Panvera P2996
As to the kind of experiment: PKCθ IMAP assay (fluorescence polarization). The following applies: human PKCθ full length enzyme, IMAP; average value; read-out: IC50 PKCθ IMAP. For orientation: In fluorescence polarisation assays a small probe gives low polarisation when free and higher when bound to something large.

The target of test [3] is T3, purified recombinant full length PKC theta (Panvera, P2996) (Homo sapiens, UniProt Q04759).
T3 construct: purified recombinant full length PKC theta (Panvera, P2996); purchased Panvera P2996
In words: Radioactive kinase assay for inhibition of full length (FL) PKCθ. The following applies: average value. The protocol: as §1, with “The enzyme was purified recombinant active kinase domain of full length PKC theta (amino acids 362-706).” left out, “The scintiplate was incubated at room temperature, washed in PBS with 0.1% TritonX 100, and counted in the 1450 Microbeta Trilux (Wallac, Version 2.60).” left out
A Radioactive Kinase Assay for Inhibition of Full Length (FL) PKCθ Inhibitors
This assay differs from what was described above in that the enzyme used was purified recombinant full length PKC theta (Panvera, P2996).

T1 sequence (Q04759 362-706): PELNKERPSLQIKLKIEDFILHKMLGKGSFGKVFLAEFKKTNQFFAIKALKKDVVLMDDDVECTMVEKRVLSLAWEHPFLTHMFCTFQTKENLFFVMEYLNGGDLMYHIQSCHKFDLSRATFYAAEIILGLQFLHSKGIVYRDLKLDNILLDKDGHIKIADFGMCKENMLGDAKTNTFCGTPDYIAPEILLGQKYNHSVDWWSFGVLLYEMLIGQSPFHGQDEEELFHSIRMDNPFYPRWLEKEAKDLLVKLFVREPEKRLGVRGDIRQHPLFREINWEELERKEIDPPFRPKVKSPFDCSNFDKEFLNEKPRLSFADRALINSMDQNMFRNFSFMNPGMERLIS
T2 sequence (Q04759 whole entry): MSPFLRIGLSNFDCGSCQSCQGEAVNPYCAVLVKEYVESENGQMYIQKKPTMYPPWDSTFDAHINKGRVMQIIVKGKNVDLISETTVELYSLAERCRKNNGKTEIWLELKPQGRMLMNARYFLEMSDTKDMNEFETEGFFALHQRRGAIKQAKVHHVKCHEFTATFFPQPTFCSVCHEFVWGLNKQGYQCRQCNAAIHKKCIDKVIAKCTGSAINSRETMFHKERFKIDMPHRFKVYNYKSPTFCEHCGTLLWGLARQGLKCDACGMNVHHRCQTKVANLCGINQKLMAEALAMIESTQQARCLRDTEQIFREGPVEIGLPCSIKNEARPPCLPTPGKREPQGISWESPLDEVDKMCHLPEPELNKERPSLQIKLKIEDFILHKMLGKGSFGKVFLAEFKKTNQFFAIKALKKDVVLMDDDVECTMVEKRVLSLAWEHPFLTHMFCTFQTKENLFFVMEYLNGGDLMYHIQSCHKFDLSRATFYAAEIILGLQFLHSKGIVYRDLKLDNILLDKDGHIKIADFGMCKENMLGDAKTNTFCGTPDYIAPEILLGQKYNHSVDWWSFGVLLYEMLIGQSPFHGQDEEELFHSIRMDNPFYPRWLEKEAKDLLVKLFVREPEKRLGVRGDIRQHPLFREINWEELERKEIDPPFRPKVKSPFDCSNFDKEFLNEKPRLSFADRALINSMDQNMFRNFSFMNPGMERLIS
T3 sequence (Q04759 whole entry): as above

As a reminder, the IC50 is the concentration at which inhibition is half-maximal. With `COc1ccc(-c2cncc(C#N)c2Nc2cccc3ncccc23)cc1OC` [Compound 104, 5-(3,4-dimethoxyphenyl)-4-(quinolin-5-ylamino)nicotinonitrile], the IC50 in test [1] was found to be 6.56 µM.

Turning to `COCCOc1ccc(-c2cncc(C#N)c2Nc2cccc3[nH]ccc23)cc1OC` [Compound 159, 4-(1H-indol-4-ylamino)-5-[3-methoxy-4-(2-methoxyethoxy)phenyl]nicotinonitrile], the IC50 was 0.016 µM in test [2] and 0.06 µM in test [3].

`N#Cc1cncc(-c2cccc(-c3cccc(Cl)c3)c2)c1Nc1ccc2[nH]ccc2c1` [Compound 130, 5-(3′-chlorobiphenyl-3-yl)-4-(1H-indol-5-ylamino)nicotinonitrile]: the values for the IC50 in test [2] and in test [3] were 0.16 µM and 0.08 µM, respectively.

Regarding `COc1ccc(-c2cncc(C#N)c2Nc2cccc3c2CCCC3)cc1OC` [Compound 105, 5-(3,4-dimethoxyphenyl)-4-(5,6,7,8-tetrahydronaphthalen-1-ylamino)nicotinonitrile], the IC50 in test [1] was 2.66 µM.

On to `N#Cc1cncc(-c2cccc(-c3ccccc3Cl)c2)c1Nc1ccc2[nH]ccc2c1` [Compound 129, 5-(2′-chlorobiphenyl-3-yl)-4-(1H-indol-5-ylamino)nicotinonitrile], for which the values for the IC50 in test [2] and in test [3] were 0.24 µM and 0.06 µM, respectively.

With `COCCOc1cc(-c2cncc(C#N)c2Nc2ccc3[nH]c(C)cc3c2)ccc1OC` [Compound 157, 5-[4-methoxy-3-(2-methoxyethoxy)phenyl]-4-[(2-methyl-1H-indol-5-yl)amino]nicotinonitrile], the IC50 in test [3] stood at 0.55 µM.

On to `N#Cc1cncc(-c2cccc(-c3ncccn3)c2)c1Nc1ccc2[nH]ccc2c1` [Compound 138, 4-(1H-indol-5-ylamino)-5-(3-pyrimidin-2-ylphenyl)nicotinonitrile], for which the IC50 in test [2] amounted to 0.19 µM; in test [3], 0.1 µM.

For the molecule `COCCOc1ccc(-c2cncc(C#N)c2Nc2ccc3ncsc3c2)cc1OC` [Compound 162, 4-(1,3-benzothiazol-6-ylamino)-5-[3-methoxy-4-(2-methoxyethoxy)phenyl]nicotinonitrile], the IC50 in test [3] is 15 µM.

On to `CN(C)C(=O)c1ccc(-c2cccc(-c3cncc(C#N)c3Nc3ccc4[nH]ccc4c3)c2)cc1` [Compound 122, 3′-[5-cyano-4-(1H-indol-5-ylamino)pyridin-3-yl]-N,N-dimethylbiphenyl-4-carboxamide], for which the IC50 in test [3] was 0.34 µM.

Consider `Cc1cccc(-c2cccc(-c3cncc(C#N)c3Nc3ccc4[nH]ccc4c3)c2)c1` [Compound 127, 4-(1H-indol-5-ylamino)-5-(3′-methylbiphenyl-3-yl)nicotinonitrile], for which the IC50 in test [3] amounted to 0.29 µM.

In the case of `COc1ccc(-c2cncc(C#N)c2Nc2cccc3cnccc23)cc1OC` [Compound 103, 5-(3,4-dimethoxyphenyl)-4-(isoquinolin-5-ylamino)nicotinonitrile], the IC50 in test [1] worked out at 5.68 µM.

Take `COCCOc1cc(-c2cncc(C#N)c2Nc2ccc3[nH]ccc3c2)ccc1OC` [Compound 154, 4-(1H-indol-5-ylamino)-5-[4-methoxy-3-(2-methoxyethoxy)phenyl]nicotinonitrile]: the IC50 in test [2] is 0.32 µM; in test [3], 0.36 µM.

As to `N#Cc1cncc(-c2ccccc2-c2ccsc2)c1Nc1ccc2[nH]ccc2c1` [Compound 146, 4-(1H-indol-5-ylamino)-5-[2-(3-thienyl)phenyl]nicotinonitrile], in test [3], the IC50 is 1.33 µM.

For `N#Cc1cncc(-c2cccc(-c3ccc(C(=O)O)cc3)c2)c1Nc1ccc2[nH]ccc2c1` [Compound 134, 3′-[5-cyano-4-(1H-indol-5-ylamino)pyridin-3-yl]biphenyl-4-carboxylic acid], the concentration for half-maximal inhibition (IC50) in test [3] came to 0.39 µM.

`N#Cc1cncc(-c2cccc(OCCN3CCCC3)c2)c1Nc1ccc2[nH]ccc2c1` [Compound 174, 4-(1H-indol-5-ylamino)-5-[3-(2-pyrrolidin-1-ylethoxy)phenyl]nicotinonitrile]: the IC50 in test [3] was 0.07 µM.

As for `COc1ccc(-c2cncc(C#N)c2Oc2ccc3[nH]ccc3c2)cc1OC` [Compound 220, 5-(3,4-dimethoxyphenyl)-4-(1H-indol-5-yloxy)nicotinonitrile], the IC50 in test [3] was greater than 20 µM.

`N#Cc1cncc(-c2cccc(OCCN3CCCC3)c2)c1Nc1ccc2cc[nH]c2c1` [Compound 172, 4-(1H-indol-6-ylamino)-5-[3-(2-pyrrolidin-1-ylethoxy)phenyl]nicotinonitrile]: the IC50 in test [3] was determined as 2.59 µM.

Consider `COCCOc1cc(-c2cncc(C#N)c2Nc2ccc3ncsc3c2)ccc1OC` [Compound 156, 4-(1,3-benzothiazol-6-ylamino)-5-[4-methoxy-3-(2-methoxyethoxy)phenyl]nicotinonitrile], for which the IC50 in test [3] is greater than 20 µM.

For the molecule `N#Cc1cncc(-c2cccc(-c3ccc(Cl)cc3)c2)c1Nc1ccc2[nH]ccc2c1` [Compound 131, 5-(4′-chlorobiphenyl-3-yl)-4-(1H-indol-5-ylamino)nicotinonitrile], the IC50 amounted to 0.12 µM in test [2] and 0.05 µM in test [3].

As for `COCCOc1ccc(-c2cncc(C#N)c2Nc2ccc3cc[nH]c3c2)cc1OC` [Compound 161, 4-(1H-indol-6-ylamino)-5-[3-methoxy-4-(2-methoxyethoxy)phenyl]nicotinonitrile], in test [3], the IC50 came to 5.5 µM.

Take `N#Cc1cncc(-c2cccc(-c3cccc(N)c3)c2)c1Nc1ccc2[nH]ccc2c1` [Compound 117, 5-(3′-aminobiphenyl-3-yl)-4-(1H-indol-5-ylamino)nicotinonitrile]: the IC50 in test [3] was determined as 0.14 µM.

In the case of `COCCOc1ccc(-c2cncc(C#N)c2Nc2ccc3[nH]ccc3c2)cc1OC` [Compound 160, 4-(1H-indol-5-ylamino)-5-[3-methoxy-4-(2-methoxyethoxy)phenyl]nicotinonitrile], the IC50 in test [3] was 0.14 µM.

On to `N#Cc1cncc(-c2cccc(OCc3ccccc3)c2)c1Nc1ccc2[nH]ccc2c1` [Compound 194, 5-[3-(benzyloxy)phenyl]-4-(1H-indol-5-ylamino)nicotinonitrile], for which, in test [3], the IC50 is 0.05 µM.

For the molecule `CC(=O)Nc1ccc(-c2cccc(-c3cncc(C#N)c3Nc3ccc4[nH]ccc4c3)c2)cc1` [Compound 120, N-{3′-[5-cyano-4-(1H-indol-5-ylamino)pyridin-3-yl]biphenyl-4-yl}acetamide], the IC50 in test [2] is 0.23 µM; in test [3], 0.12 µM.

On to `COCCOc1cc(-c2cncc(C#N)c2Nc2cccc3[nH]ccc23)ccc1OC` [Compound 153, 4-(1H-indol-4-ylamino)-5-[4-methoxy-3-(2-methoxyethoxy)phenyl]nicotinonitrile], for which the IC50 in test [3] was found to be 0.04 µM.

For the molecule `N#Cc1ccc(-c2cccc(-c3cncc(C#N)c3Nc3ccc4[nH]ccc4c3)c2)cc1` [Compound 118, 5-(4′-cyanobiphenyl-3-yl)-4-(1H-indol-5-ylamino)nicotinonitrile], the IC50 in test [3] turned out to be 0.09 µM.

As to `N#Cc1cncc(-c2cccc(-c3cccc(C(=O)O)c3)c2)c1Nc1ccc2[nH]ccc2c1` [Compound 133, 3′-[5-cyano-4-(1H-indol-5-ylamino)pyridin-3-yl]biphenyl-3-carboxylic acid], the concentration for half-maximal inhibition (IC50) in test [3] stood at 0.37 µM.

Consider `CN1CCN(C(=O)c2ccc(-c3cccc(-c4cncc(C#N)c4Nc4ccc5[nH]ccc5c4)c3)cc2)CC1` [Compound 207, 4-(1H-indol-5-ylamino)-5-{4′-[(4-methylpiperazin-1-yl)carbonyl]biphenyl-3-yl}nicotinonitrile], for which the IC50 in test [3] is 0.53 µM.

As for `N#Cc1cncc(-c2cccc(OCCCl)c2)c1Nc1ccc2cc[nH]c2c1` [Compound 166, 5-[3-(2-chloroethoxy)phenyl]-4-(1H-indol-6-ylamino)nicotinonitrile], the IC50 in test [3] amounted to 3.83 µM.

`N#Cc1cncc(-c2ccccc2-c2ccccc2Cl)c1Nc1ccc2[nH]ccc2c1` [Compound 143, 5-(2′-chlorobiphenyl-2-yl)-4-(1H-indol-5-ylamino)nicotinonitrile]: in test [3], the IC50 is 0.91 µM.
